Where two headings read alike, the source gives them in different places.
Legend:
HTLV-III = experiment: Anti-AIDS activity, infected cell rate of MT-4 cells infected with HTLV-III at the 6th day (Example 9); format: cell-based; details: for anti-AIDS virus activity, in words: Example 9
Protocol: To MT-4 cells (30×10^4 /ml) cultured in RPMI-1640 medium containing 10% bovine serum, was inoculated HTLV-III, and the suspension was incubated at 37° C. for 1 hour to cause the adsorption of the virus. The cell:virus ratio was 500:1. The cells were then washed, and cultured with or without various doses of the test substances (same as those of Example 1) at 37° C. under 5% CO2 for 3 days, after which cell growth, viability, and percentage of infected cells were recorded. The infected cells were distinguished from the uninfected cells by an indirect immuno-fluorescence method. Thus, the cultured cells were fixed with cold methanol on a slide glass, reacted with antibody to the HTLV-III-specific antigens, and further with the secondary antibody (having a fluororescent label). The results are shown in FIGS. 9-29, wherein, .gradient., .increment. and .quadrature. show the controls without virus, and show the infection experiments with HTLV-III. The cell growth is indicated in number of cells, the viability (%) in number of viable cells ×100/number of total cells, and the infected cell rate (%) in number of fluorescent-positive cells x 100/number of total cells.
In order to examine the correlation between the anti-AIDS virus activity and the molecular structure (especially, molecular weight and S-content or number of sulfate group in this case) of various test substances including those used in Examples 1-7, the anti-AIDS activities were evaluated for the various naturally occurring polysaccharides, polysaccharides having a sulfate group, mucopolysaccharides, mucopolysaccharide sulfate, and mucopolysaccharide polysulfate. Further, similar experiments were carried out with various other sulfates which were synthetically obtained. The experimental procedures employed are identical to that in the preceding experiments. The cultured MT-4 cells were infected with HTLV-III and the inhibitory effects of various test substances on the infected cell rate (number of fluorescent cell×100/ total cell, %) were determined at the 6th day.

MT-4 cells = experiment: Cytotoxicity, MT-4 cells cultured without virus (Examples 4 and 8); format: cell-based, human; details: without virus; for Viability: 0 μg/ml gives 87; for Cell number: 0 μg/ml gives 124
Excerpt: The cell:virus ratio was 500:1. […] The infected cells were distinguished from the uninfected cells by an indirect immuno-fluorescence method. Thus, the cultured cells were fixed with cold methanol on a slide glass, reacted with antibody to the HTLV-III-specific antigens, and further with the secondary antibody (having a fluororescent label). […] The cell growth is indicated in number of cells, the viability (%) in number of viable cells ×100/number of total cells, and the infected cell rate (%) in number of fluorescent-positive cells x 100/number of total cells.

[1] = system: reverse transcriptase (authentic sample) derived from Avian Myeloblastosis Virus; experiment: Inhibition of reverse transcriptase activity (AMV), Examples 1 and 5; format: biochemical; details: FIGS. 30-33
Protocol: Test substances were assayed for inhibition against the enzyme activity of reverse transcriptase (authentic sample) derived from Avian Myeloblastosis Virus (abbrev. AMV), a kind of retrovirus. Five microliters of […] (template RNA), 4 μl of (dT)12-18 (primer DNA), and 1 μl of water were mixed with 5 μl of 0.5M Tris-HCl (pH 8.4) including 0.1% triton X-100, 5 μl of […], 5 μl of 20 […], 5 μl of water, and [^3 H]-TTP (tritium labeled thymidine triphosphate). To this mixture, test substances in solutions (final concentrations: 1, 0.1, and 0.01 μg/ml, 5 μl) or buffer solutions (control, 5 μl) at various doses were added. Then, 5 μl (one unit) of the authentic reverse transcriptase derived from AMV was added and the reaction mixture was incubated at 37° C. for 30 minutes. The reaction was stopped by addition of trichloroacetic acid, and after filtering the reaction mixture, the radioactivity of the polymerized (3H-T)n retained on the filter was measured using a liquid scintilation counter. As the test substances, sodium dextran sulfate (molecular weight: 5000), same (molecular weight: 8000), same (molecular weight: 500000), fucoidin, κ-carrageenan, λ-carrageenan, and .iota.-carrageenan were used.
The effects of the test substances on the reverse transcriptase activity of AMV were evaluated by the method described in Example 1.

mice = details: cited from earlier work
[2] = 10 μg/ml, 6th day, control without test substance 100%
[3] = 100 μg/ml, 6th day, control without test substance 100%
[4] = 1000 μg/ml, 6th day, control without test substance 100%
[5] = 10 μg/ml, 6th day, control without test substance 100%, 8640 min
[6] = 100 μg/ml, 6th day, control without test substance 100%, 8640 min
[7] = 1 μg/ml, listed as Sodium dextran sulfate (molecular weight: 5000, S-content: 13%)
[8] = 10 μg/ml, listed as Sodium dextran sulfate (molecular weight: 5000, S-content: 13%)
[9] = 100 μg/ml, listed as Sodium dextran sulfate (molecular weight: 5000, S-content: 13%)

Molecule	anti-AIDS virus activity, in words (HTLV-III)	Infected cell (%) (HTLV-III; [2])	Infected cell (%) (HTLV-III; [3])	further results
inulin [reference compound]	None	–	–	–
methylcellulose [reference compound]	None	–	–	–
N-acetylglucosamine polysulfate [reference compound]	–	100	100	Infected cell (%) (HTLV-III; [4]): 100%
κ-Carrageenan	–	95	1	Viability (MT-4 cells; 1 μg/ml): 93%; Cell number (MT-4 cells; 1 μg/ml): 147 ×10^4 cells/ml; Viability (MT-4 cells; 10 μg/ml): 93%; Cell number (MT-4 cells; 10 μg/ml): 149 ×10^4 cells/ml; Viability (MT-4 cells; 100 μg/ml): 92%; Cell number (MT-4 cells; 100 μg/ml): 111 ×10^4 cells/ml
Dextran sulfate [Dextran sulfate 500,000]	–	–	–	Infected cell (%) (HTLV-III; [5]): 20%; Infected cell (%) (HTLV-III; [6]): 0%
Chondroitin-4-sulfate polysulfate	particularly strong	2	1	–
Dermatan sulfate [reference compound]	–	100	80	–
Glucose-polysulfate [reference compound]	–	100	100	Infected cell (%) (HTLV-III; [4]): 100%
Chitosan [reference compound]	–	100	100	–
Chondroitin-6-sulfate polysulfate	particularly strong	2	1	–
.iota.-Carrageenan	–	100	31	Viability (MT-4 cells; 1 μg/ml): 94%; Cell number (MT-4 cells; 1 μg/ml): 135 ×10^4 cells/ml; Viability (MT-4 cells; 10 μg/ml): 93%; Cell number (MT-4 cells; 10 μg/ml): 128 ×10^4 cells/ml; Viability (MT-4 cells; 100 μg/ml): 80%; Cell number (MT-4 cells; 100 μg/ml): 144 ×10^4 cells/ml
Chitin sulfate	–	100	81	–
Agarose [reference compound]	–	100	100	–
Chondroitin-6-sulfate [reference compound]	–	100	100	–
λ-Carrageenan	particularly strong	3	1	Viability (MT-4 cells; 1 μg/ml): 89%; Cell number (MT-4 cells; 1 μg/ml): 147 ×10^4 cells/ml; Viability (MT-4 cells; 10 μg/ml): 94%; Cell number (MT-4 cells; 10 μg/ml): 203 ×10^4 cells/ml; Viability (MT-4 cells; 100 μg/ml): 94%; Cell number (MT-4 cells; 100 μg/ml): 83 ×10^4 cells/ml
Alginic acid sulfate	particularly strong	7	4	–
Alginic acid [reference compound]	–	100	100	–
Keratan sulfate [reference compound]	–	100	80	–
Hyaluronic acid [reference compound]	–	100	100	–

Molecule	anti-AIDS virus activity, in words (HTLV-III)	Infected cell (%) (HTLV-III; [2])	Infected cell (%) (HTLV-III; [3])	further results
pectin [reference compound]	None	–	–	–
Keratan polysulfate	–	80	40	reverse transcriptase inhibitory activity compared with the natural substances [1]: stronger activity
Chitin [reference compound]	–	100	100	–
Chondroitin-4-sulfate [reference compound]	–	100	100	–
Chitosan sulfate	particularly strong	1	1	–
Dextran sulfate [Dextran sulfate 5,000]	–	–	–	Viability (MT-4 cells; [7]): 90%; Cell number (MT-4 cells; [7]): 123 ×10^4 cells/ml; Viability (MT-4 cells; [8]): 92%; Cell number (MT-4 cells; [8]): 127 ×10^4 cells/ml; Viability (MT-4 cells; [9]): 93%; Cell number (MT-4 cells; [9]): 121 ×10^4 cells/ml; Infected cell (%) (HTLV-III; [5]): 18%; Infected cell (%) (HTLV-III; [6]): 0%
colominic acid [reference compound]	None	–	–	–
Dextran sulfate [Dextran sulfate 3,500]	–	–	–	Infected cell (%) (HTLV-III; [5]): 100%; Infected cell (%) (HTLV-III; [6]): 82%; Infected cell (%) (HTLV-III; [4]): 1%
Fucoidin	–	32	1	Viability (MT-4 cells; 1 μg/ml): 92%; Cell number (MT-4 cells; 1 μg/ml): 141 ×10^4 cells/ml; Viability (MT-4 cells; 10 μg/ml): 99%; Cell number (MT-4 cells; 10 μg/ml): 112 ×10^4 cells/ml; Viability (MT-4 cells; 100 μg/ml): 93%; Cell number (MT-4 cells; 100 μg/ml): 71 ×10^4 cells/ml
Dextran [Dextran 9,000, reference compound]	–	100	100	–
Chondroitin polysulfate	particularly strong	3	1	reverse transcriptase inhibitory activity compared with the natural substances [1]: stronger activity
Dextran sulfate [Dextran sulfate 8,000]	–	–	–	Infected cell (%) (HTLV-III; [5]): 25%; Infected cell (%) (HTLV-III; [6]): 0%
Hyaluronic acid sulfate	–	100	70	–
Chondroitin [reference compound]	–	100	100	–
sodium chondroitin sulfate	–	–	–	acute toxicity (LD50) (mice; intraperitoneally): ≥ 4,000 mg/kg; acute toxicity (LD50) (mice; orally): ≥ 7,500 mg/kg
dextran sulfate	particularly strong	–	–	–
O=C[C@H](O)[C@@H](O)[C@H](O)[C@H](O)COS(=O)(=O)O [Glucose-6-sulfate, reference compound]	–	–	–	activity at 10 µg/mL (HTLV-III; Human immunodeficiency virus 1, MT4, 144 h, 10 μg/ml, 6th day, control without test substance 100%): 100%; activity at 100 µg/mL (HTLV-III; Human immunodeficiency virus 1, MT4, 144 h, 100 μg/ml, 6th day, control without test substance 100%): 100%; activity at 1000 µg/mL (HTLV-III; Human immunodeficiency virus 1, MT4, 144 h, 1000 μg/ml, 6th day, control without test substance 100%): 100%
OC[C@H]1O[C@H](OC[C@H]2O[C@H](O[C@]3(CO)O[C@H](CO)[C@@H](O)[C@@H]3O)[C@H](O)[C@@H](O)[C@@H]2O)[C@H](O)[C@@H](O)[C@H]1O [raffinose, reference compound]	None	–	–	–
Heparitin sulfate [reference compound]	–	100	90	–

Source: patent US5100879A, “Method of topically cleansing the human body” (K.K. Ueno Seiyaku Oyo Kenkyujo, priority 1987, dated 1992)
